This note sets out measurements from ChEMBL document CHEMBL4665706, “Synthesis of a Unique Psammaplysin F Library and Functional Evaluation in Prostate Cancer Cells by Multiparametric Quantitative Single Cell Imaging” (J Nat Prod, 2020).

SMILES strings stand for the structures. Active and inactive are the calls of the source. No cut-off for these calls is given here.

In assay [1] the test system is LNCaP. Nature of the assay: Cell cycle arrest in human LNCaP cells assessed as cell death at 20 to 50 uM after 24 hrs in presence of 6AA by DAPI staining-based fluorescence assay. Format: functional. Particulars: dose microM 20-50, time 24.0 hrs.
Assay [2] has as its system LNCaP. In words: Cell cycle arrest in human LNCaP cells assessed as accumulation of cells at G2 phase at 20 to 50 uM after 24 hrs by DAPI staining-based fluorescence assay. The format is functional. Particulars: dose microM 20-50, time 24.0 hrs.
The test system of assay [3] is LNCaP. Nature of the assay: Cell cycle arrest in human LNCaP cells assessed as accumulation of cells at M phase at 20 to 50 uM after 24 hrs by DAPI staining-based fluorescence assay. Format: functional. Particulars: dose microM 20-50, time 24.0 hrs.
Assay [4] deals with LNCaP. Nature of the assay: Cell cycle arrest in human LNCaP cells assessed as cell death at 20 to 50 uM after 24 hrs in presence of VINB by DAPI staining-based fluorescence assay. Particulars: dose microM 20-50, time 24.0 hrs. Format: functional.
Assay [5] concerns LNCaP. In words: Reduction in mitochondrial membrane potential in human LNCaP cells assessed as reduction in tubular structure at 20 to 50 uM after 24 hrs by Hoechst 33342/MTG staining-based by fluorescence assay. Format: functional, cell-based. Particulars: dose microM 20-50, time 24.0 hrs.
For assay [6], the system named is LNCaP. In words: Reduction in mitochondrial membrane potential in human LNCaP cells assessed as mitochondrial morphological change at 50 uM after 24 hrs by Hoechst 33342/MTG staining-based by fluorescence assay. The format is functional, cell-based.

Regarding `COC1=C(Br)C[C@@]2(OC=C1Br)ON=C(C(=O)NCCCOc1c(Br)cc(CCN(C)C(=O)C(C)(C)C)cc1Br)[C@H]2O`, the result in assay [1], in assay [2], in assay [3], in assay [4] and in assay [5] was Active.
`COC1=C(Br)C[C@@]2(OC=C1Br)ON=C(C(=O)NCCCOc1c(Br)cc(CCN(C)C(=O)NCCc3ccc(F)cc3)cc1Br)[C@H]2O`: the outcome in assay [2] and in assay [3] was Active.
As to `COC1=C(Br)C[C@@]2(OC=C1Br)ON=C(C(=O)NCCCOc1c(Br)cc(CCN(C)C(=O)Nc3cccc(OC)c3OC)cc1Br)[C@H]2O`, the outcome in assay [2] and in assay [3] was inactive.
Consider `CNCCc1cc(Br)c(OCCCNC(=O)C2=NO[C@]3(CC(Br)=C(OC)C(Br)=CO3)[C@@H]2O)c(Br)c1`, for which the outcome in assay [2], in assay [6], in assay [3] and in assay [5] was Active.
Regarding `C=CCNC(=O)N(C)CCc1cc(Br)c(OCCCNC(=O)C2=NO[C@]3(CC(Br)=C(OC)C(Br)=CO3)[C@@H]2O)c(Br)c1`, the result in assay [2], in assay [3] and in assay [5] was Active.
Regarding `CCCCNC(=O)N(C)CCc1cc(Br)c(OCCCNC(=O)C2=NO[C@]3(CC(Br)=C(OC)C(Br)=CO3)[C@@H]2O)c(Br)c1`, the result in assay [1], in assay [2], in assay [3], in assay [4] and in assay [5] was Active.
As for `COC1=C(Br)C[C@@]2(OC=C1Br)ON=C(C(=O)NCCCOc1c(Br)cc(CCN(C)C(=O)Nc3ccccc3)cc1Br)[C@H]2OC(=O)c1ccccc1`, the result in assay [2] and in assay [3] was inactive.
Take `COC1=C(Br)C[C@@]2(OC=C1Br)ON=C(C(=O)NCCCOc1c(Br)cc(CCN(C)C(=O)C(C)(C)C)cc1Br)[C@H]2OC(=O)C(C)(C)C`: the result in assay [2], in assay [3] and in assay [5] was Active.
Take `COC1=C(Br)C[C@@]2(OC=C1Br)ON=C(C(=O)NCCCOc1c(Br)cc(CCN(C)C(=O)NCc3ccc(OC)cc3)cc1Br)[C@H]2O`: the result in assay [2] and in assay [3] was inactive.
As to `COC1=C(Br)C[C@@]2(OC=C1Br)ON=C(C(=O)NCCCOc1c(Br)cc(CCN(C)C(=O)NC3CCCC3)cc1Br)[C@H]2O`, the outcome in assay [2] and in assay [3] was Active.
`COC1=C(Br)C[C@@]2(OC=C1Br)ON=C(C(=O)NCCCOc1c(Br)cc(CCN(C)C(=O)Nc3ccc(C(C)=O)cc3)cc1Br)[C@H]2O`: the outcome in assay [2] and in assay [3] was Active.
